Reference: PubChem BioAssay AID248 (DTP/NCI, 2004)
Values joined by “and” are separate entries in the source; they are usually repeats but may differ in a detail not shown here. Identical values can stand only once. Inconclusive results and toxic doses are left out. No stated cut-off is given here; in the data, active means T/C of 150% or more; inactive means T/C below 125%.

Tested on: L1210 leukemia ip in BDF1 mice, survival T/C
Assay: NCI In Vivo Anticancer Drug Screen. Data for tumor model L1210 Leukemia (intraperitoneal) in B6D2F1 (BDF1) mice
Conditions: higher = longer survival
How it was run: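 Tumor was transplanted into mice, which were then dosed with test compound or vehicle alone. Survival was recorded for each group, and the treated figure was expressed relative to the control figure.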

[1] = endpoint: mean survival time, dose: 100.0 mg/kg/injection, schedule: Q04DX003 (ip), vehicle: Klucel (hydroxypropylcellulose) (HPC)
[2] = endpoint: mean survival time, dose: 200.0 mg/kg/injection, schedule: Q04DX003 (ip), vehicle: Klucel (hydroxypropylcellulose) (HPC)
[3] = endpoint: mean survival time, dose: 400.0 mg/kg/injection, schedule: Q04DX003 (ip), vehicle: Klucel (hydroxypropylcellulose) (HPC)
[4] = endpoint: mean survival time, dose: 100.0 mg/kg/injection, schedule: Q01DX001 (ip), vehicle: saline
[5] = endpoint: mean survival time, dose: 200.0 mg/kg/injection, schedule: Q01DX001 (ip), vehicle: saline
[6] = endpoint: mean survival time, dose: 400.0 mg/kg/injection, schedule: Q01DX001 (ip), vehicle: saline
[7] = endpoint: mean survival time, dose: 100.0 mg/kg/injection, schedule: Q04DX003 (ip), vehicle: saline with Tween-80
[8] = endpoint: mean survival time, dose: 200.0 mg/kg/injection, schedule: Q04DX003 (ip), vehicle: saline with Tween-80
[9] = endpoint: mean survival time, dose: 400.0 mg/kg/injection, schedule: Q04DX003 (ip), vehicle: saline with Tween-80
[10] = endpoint: mean survival time, dose: 100.0 mg/kg/injection, schedule: Q01DX009 (ip), vehicle: saline with Tween-80
[11] = endpoint: mean survival time, dose: 200.0 mg/kg/injection, schedule: Q01DX009 (ip), vehicle: saline with Tween-80
[12] = endpoint: mean survival time, dose: 400.0 mg/kg/injection, schedule: Q01DX009 (ip), vehicle: saline with Tween-80
[13] = endpoint: mean survival time, dose: 25.0 mg/kg/injection, schedule: Q01DX009 (ip), vehicle: saline with Tween-80
[14] = endpoint: mean survival time, dose: 50.0 mg/kg/injection, schedule: Q01DX009 (ip), vehicle: saline with Tween-80
[15] = endpoint: mean survival time, dose: 200.0 mg/kg/injection, schedule: Q01DX001 (ip), vehicle: carboxymethylcellulose (CMC)
[16] = endpoint: mean survival time, dose: 400.0 mg/kg/injection, schedule: Q01DX001 (ip), vehicle: carboxymethylcellulose (CMC)
[17] = endpoint: mean survival time, dose: 75.0 mg/kg/injection, schedule: Q01DX001 (ip), vehicle: saline
[18] = endpoint: mean survival time, dose: 150.0 mg/kg/injection, schedule: Q01DX001 (ip), vehicle: saline
[19] = endpoint: mean survival time, dose: 100.0 mg/kg/injection, schedule: Q04DX002 (ip), vehicle: saline
[20] = endpoint: mean survival time, dose: 200.0 mg/kg/injection, schedule: Q04DX002 (ip), vehicle: saline

Measured: T/C

Nc1cccc(CO)c1
inactive: endpoint: mean survival time, dose: 100.0 mg/kg/injection, schedule: Q04DX002 (ip), vehicle: saline with Tween-80 104 % of control | endpoint: mean survival time, dose: 200.0 mg/kg/injection, schedule: Q04DX002 (ip), vehicle: saline with Tween-80 90 % of control | endpoint: mean survival time, dose: 400.0 mg/kg/injection, schedule: Q04DX002 (ip), vehicle: saline with Tween-80 90 % of control

O=[N+]([O-])c1ccc(C=Nc2ccccc2CO)s1
inactive: [1] 103 % of control | [2] 104 % of control | [3] 93 % of control

O=C(O)CCCc1cccc2ccccc12
inactive: endpoint: mean survival time, dose: 37.0 mg/kg/injection, schedule: Q01DX009 (ip), vehicle: gum acacia 97 % of control | endpoint: mean survival time, dose: 75.0 mg/kg/injection, schedule: Q01DX009 (ip), vehicle: gum acacia 103 % of control | endpoint: mean survival time, dose: 100.0 mg/kg/injection, schedule: Q04DX003 (ip), vehicle: gum acacia 97 % of control | endpoint: mean survival time, dose: 150.0 mg/kg/injection, schedule: Q01DX009 (ip), vehicle: gum acacia 92 % of control | endpoint: mean survival time, dose: 200.0 mg/kg/injection, schedule: Q04DX003 (ip), vehicle: gum acacia 86 % of control

O=C(NC(=S)Nc1ccc(Cl)c(Cl)c1)c1cccc([N+](=O)[O-])c1
inactive: endpoint: mean survival time, dose: 100.0 mg/kg/injection, schedule: Q01DX009 (ip), vehicle: Klucel (hydroxypropylcellulose) (HPC) 95 % of control | endpoint: mean survival time, dose: 100.0 mg/kg/injection, schedule: Q04DX002 (ip), vehicle: Klucel (hydroxypropylcellulose) (HPC) 95 % of control and 97 % of control | [1] 93 % of control | endpoint: mean survival time, dose: 200.0 mg/kg/injection, schedule: Q01DX009 (ip), vehicle: Klucel (hydroxypropylcellulose) (HPC) 95 % of control | endpoint: mean survival time, dose: 200.0 mg/kg/injection, schedule: Q04DX002 (ip), vehicle: Klucel (hydroxypropylcellulose) (HPC) 93 % of control and 97 % of control | [2] 95 % of control | endpoint: mean survival time, dose: 400.0 mg/kg/injection, schedule: Q01DX009 (ip), vehicle: Klucel (hydroxypropylcellulose) (HPC) 92 % of control and 94 % of control | endpoint: mean survival time, dose: 400.0 mg/kg/injection, schedule: Q04DX002 (ip), vehicle: Klucel (hydroxypropylcellulose) (HPC) 95 % of control and 102 % of control | [3] 93 % of control

CCOC(=O)C1CN(C(C)C)C(=O)C1=O (stereo not given)
inactive: endpoint: mean survival time, dose: 50.0 mg/kg/injection, schedule: Q01DX001 (ip), vehicle: saline 100 % of control | [4] 102 % of control | [5] 96 % of control | [6] 114 % of control

CCc1c(C/C(=N/O)C(=O)O)[nH]c(=S)[nH]c1=O
inactive: [7] 97 % of control | [8] 97 % of control | [9] 96 % of control

COC(=O)[C@@H]1C2C=CC(C2)[C@@H]1C(=O)OC
inactive: [10] 101 % of control | [11] 104 % of control | [12] 104 % of control

Cc1ccccc1NC(=O)N(O)C1(C#N)CCCCC1
inactive: [4] 91 % of control | [5] 93 % of control | [6] 93 % of control

O=C(C(Br)c1ccccc1)C(Br)c1ccccc1 (stereo not given)
inactive: endpoint: mean survival time, dose: 6.25 mg/kg/injection, schedule: Q01DX009 (ip), vehicle: saline with Tween-80 104 % of control | endpoint: mean survival time, dose: 12.5 mg/kg/injection, schedule: Q01DX009 (ip), vehicle: saline with Tween-80 98 % of control and 107 % of control | endpoint: mean survival time, dose: 12.5 mg/kg/injection, schedule: Q04DX003 (ip), vehicle: saline with Tween-80 96 % of control | [13] 100 % of control and 110 % of control | endpoint: mean survival time, dose: 25.0 mg/kg/injection, schedule: Q04DX003 (ip), vehicle: saline with Tween-80 90 % of control | [14] 102 % of control | endpoint: mean survival time, dose: 50.0 mg/kg/injection, schedule: Q04DX003 (ip), vehicle: saline with Tween-80 101 % of control

CCCCCCCCCCCC1=C(O)C(=O)C(CC2=C(O)C(=O)C(CCCCCCCCCCC)=C(O)C2=O)=C(O)C1=O
inactive: [15] 100 % of control | [16] 103 % of control

COc1cc2c(cc1OCc1ccccc1)C(C#N)N(C(=O)c1ccccc1)C=C2 (stereo not given)
inactive: endpoint: mean survival time, dose: 25.0 mg/kg/injection, schedule: Q01DX009 (ip), vehicle: saline 98 % of control | endpoint: mean survival time, dose: 50.0 mg/kg/injection, schedule: Q01DX009 (ip), vehicle: saline 100 % of control | endpoint: mean survival time, dose: 100.0 mg/kg/injection, schedule: Q01DX009 (ip), vehicle: saline 93 % of control | endpoint: mean survival time, dose: 200.0 mg/kg/injection, schedule: Q01DX009 (ip), vehicle: saline 86 % of control

C[n+]1cccc(C(=O)NCCc2c[nH]c3ccccc23)c1
inactive: [17] 96 % of control | [18] 104 % of control

BrC1CCCCN1Cc1cc2ccccc2cc1CN1CCCCC1Br (stereo not given)
inactive: endpoint: mean survival time, dose: 9.38 mg/kg/injection, schedule: Q01DX001 (ip), vehicle: other 100 % of control | endpoint: mean survival time, dose: 18.75 mg/kg/injection, schedule: Q01DX001 (ip), vehicle: other 102 % of control

CC(C)(COCOCC(C)(C)[N+](=O)[O-])[N+](=O)[O-]
inactive: [7] 100 % of control | [8] 103 % of control | [9] 100 % of control

CCCCN(CCCC)CN(CCCC)CCCC
inactive: [13] 97 % of control | [14] 100 % of control | [10] 100 % of control | [19] 95 % of control | [20] 95 % of control

COc1ccc(C(=O)OC(=O)c2ccc(OC)cc2)cc1
inactive: endpoint: mean survival time, dose: 50.0 mg/kg/injection, schedule: Q01DX001 (ip), vehicle: carboxymethylcellulose (CMC) 110 % of control | endpoint: mean survival time, dose: 100.0 mg/kg/injection, schedule: Q01DX001 (ip), vehicle: carboxymethylcellulose (CMC) 104 % of control | [10] 113 % of control | [7] 102 % of control | [15] 108 % of control | [11] 116 % of control | [8] 102 % of control | [16] 112 % of control | [12] 110 % of control | [9] 101 % of control

CCCN1CCN(c2ccccc2)CC1
inactive: endpoint: mean survival time, dose: 25.0 mg/kg/injection, schedule: Q04DX003 (ip), vehicle: saline 90 % of control | endpoint: mean survival time, dose: 50.0 mg/kg/injection, schedule: Q04DX003 (ip), vehicle: saline 97 % of control | endpoint: mean survival time, dose: 100.0 mg/kg/injection, schedule: Q04DX003 (ip), vehicle: saline 92 % of control

Nc1ncnc(N)c1NC(=O)c1ccc(OCCc2ccccc2)c(Cl)c1
inactive: endpoint: mean survival time, dose: 100.0 mg/kg/injection, schedule: Q01DX001 (ip), vehicle: saline with Tween-80 106 % of control | endpoint: mean survival time, dose: 200.0 mg/kg/injection, schedule: Q01DX001 (ip), vehicle: saline with Tween-80 96 % of control | endpoint: mean survival time, dose: 400.0 mg/kg/injection, schedule: Q01DX001 (ip), vehicle: saline with Tween-80 102 % of control

CCOC(=O)/C(C#N)=C/c1cccn1Cc1ccc2c(c1)OCO2
inactive: endpoint: mean survival time, dose: 25.0 mg/kg/injection, schedule: Q04DX002 (ip), vehicle: saline 101 % of control | endpoint: mean survival time, dose: 50.0 mg/kg/injection, schedule: Q04DX002 (ip), vehicle: saline 105 % of control | [19] 105 % of control

CCCOC(=O)CSC#N
inactive: endpoint: mean survival time, dose: 5.0 mg/kg/injection, schedule: Q01DX001 (ip), vehicle: saline 106 % of control | endpoint: mean survival time, dose: 10.0 mg/kg/injection, schedule: Q01DX001 (ip), vehicle: saline 100 % of control

C[N+]1(C2CCC3CCC2C3=O)CCCC1 (stereo not given)
inactive: [17] 97 % of control | [18] 97 % of control

CCCCOC(=O)C(C)(O)C(Cl)c1ccccc1 (stereo not given)
inactive: [19] 100 % of control | [20] 95 % of control | endpoint: mean survival time, dose: 400.0 mg/kg/injection, schedule: Q04DX002 (ip), vehicle: saline 91 % of control

CC(=O)NC(CCc1ccc(Cl)c(Cl)c1)c1cccc(O)c(=O)c1 (stereo not given)
inactive: endpoint: median survival time, dose: 50.0 mg/kg/injection, schedule: Q01DX009 (ip), vehicle: Klucel (hydroxypropylcellulose) (HPC) 118 % of control | endpoint: median survival time, dose: 100.0 mg/kg/injection, schedule: Q01DX009 (ip), vehicle: Klucel (hydroxypropylcellulose) (HPC) 118 % of control

CSC1=[N+](C)CCS1
inactive: [17] 106 % of control | endpoint: mean survival time, dose: 75.0 mg/kg/injection, schedule: Q04DX003 (ip), vehicle: saline with Tween-80 109 % of control | endpoint: mean survival time, dose: 87.5 mg/kg/injection, schedule: Q01DX009 (ip), vehicle: saline 98 % of control | [18] 107 % of control | endpoint: mean survival time, dose: 150.0 mg/kg/injection, schedule: Q04DX003 (ip), vehicle: saline with Tween-80 101 % of control | endpoint: mean survival time, dose: 175.0 mg/kg/injection, schedule: Q01DX009 (ip), vehicle: saline 100 % of control

CCC(/C=N/NC(N)=O)CC
inactive: [1] 101 % of control | [2] 93 % of control | [3] 96 % of control
